# In patent US20250152781A1, “TISSUE ENGINEERING AND DRUG DELIVERY DEVICE” (Ohio State Innovation Foundation, priority 2022, published 2025):
# Test: Diffusive release of Rose Bengal through sintered electrospun polymer capsule wall in PBS
# Type: physicochemical
# From the text: To create a generic advantage that dramatically enhances the long-term drug delivery properties of electrospun scaffolds beyond those currently available via electrospinning alone. A little-known aspect of materials processing is that the shrinkage of high surface area polymers (e.g., in electrospun or electrosprayed form) can be used to provide higher density polymers. In the context of electrospun tissue engineering scaffolds, this phenomenon can be used to create relatively dense material from polymer compositions that would be difficult—if not impossible—to create via extrusion. The relatively dense material then creates a solid barrier through which diffusion of the internally-held drug can occur. The simplest version of this process involves creating a hollow tube via electrospinning (FIG. 1), sintering it to full or nearly-full density (thus eliminating open porosity, see FIG. 2), and then inserting the drug of interest contained with the appropriate solvent. Once this is complete, the ends of the tube can be heat-sealed (FIG. 3) using commonly available, purpose-built equipment designed and manufactured for the purpose of heat-sealing plastics of nearly any chemical composition. […]
compound,measurement,setting,value
O=C([O-])c1c(Cl)c(Cl)c(Cl)c(Cl)c1-c1c2cc(I)c(=O)c(I)c-2oc2c(I)c([O-])c(I)cc12.[Na+].[Na+] [Rose Bengal],drug release rate of Rose Bengal through 95% PCL-5% PET wall,"95% PCL-5% polyethylene terephthalate wall formed by electrospinning then sintering to full density, after 30+ days of release (FIG. 5)",above 10 μg/day
same,release rate of Rose Bengal through PCL capsule wall,"PCL wall formed by electrospinning then sintering to full density, after 120 days of exposure to 37° C. phosphate-buffered saline (FIG. 4)",9 to 10 µg/day
